Several values for one entry are separate records, joined by “and”; a condition that tells them apart may be missing. Equal entries are not always repeated.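 96-well plates; 48 h exposure; 5 concentrations. Endpoints by linear interpolation between flanking doses. Not reached: highest tested concentration assigned. GI50 = concentration required for 50% inhibition of growth. TGI: total growth inhibition.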 Bounds are passed on as bounds.

Test systems include NCI/ADR-RES ovarian; MOLT-4 leukemia; MCF7 breast; PC-3 prostate; K-562 leukemia; IGROV1 ovarian; OVCAR-3 ovarian; HCT-15 colon; SK-MEL-28 melanoma; SK-MEL-2 melanoma; RXF 393 renal; SR leukemia; OVCAR-4 ovarian; TK-10 renal; MALME-3M melanoma; HCT-116 colon; MDA-MB-435; NCI-H226 lung; UACC-62 melanoma.
Experiment in all cases: inhibition of tumour cell growth, NCI panel, 48 h

With `CC(=O)c1cc2ccccc2oc1=O`, the TGI with NCI/ADR-RES ovarian, in the assay on MOLT-4 leukemia, in the assay on MCF7 breast, in the assay with PC-3 prostate, in the assay with K-562 leukemia and with IGROV1 ovarian was greater than 100 µM in each case. In addition, the TGI in the assay with OVCAR-3 ovarian, with HCT-15 colon, with SK-MEL-28 melanoma, in the assay with SK-MEL-2 melanoma, with RXF 393 renal and in the assay on SR leukemia was greater than 100 µM throughout. In addition, the TGI in the assay with OVCAR-4 ovarian, with TK-10 renal, in the assay with MALME-3M melanoma, with HCT-116 colon, in the assay with MDA-MB-435 and in the assay with NCI-H226 lung was greater than 100 µM in each case.
Take `CCC(=O)Nc1ccc(N2C(=O)C(Cl)C2c2ccc(SC)cc2)cc1` (stereo not given): the TGI in the assay on NCI/ADR-RES ovarian, with MOLT-4 leukemia, in the assay with MCF7 breast, with PC-3 prostate, in the assay on K-562 leukemia and in the assay with IGROV1 ovarian was greater than 100 µM in each case. Also, the TGI with OVCAR-3 ovarian, with HCT-15 colon, with SK-MEL-28 melanoma, with SK-MEL-2 melanoma, in the assay with RXF 393 renal and with SR leukemia was greater than 100 µM throughout. The TGI in the assay on OVCAR-4 ovarian was greater than 100 µM; in the assay on MALME-3M melanoma it was greater than 100 µM; with HCT-116 colon, greater than 100 µM; in the assay on MDA-MB-435, greater than 100 µM; with NCI-H226 lung, 98.1 µM; in the assay on UACC-62 melanoma, greater than 100 µM.
Turning to `Cc1nc2c(=O)n(C)ncc2[nH]1`, the TGI in the assay with NCI/ADR-RES ovarian, with MOLT-4 leukemia, with MCF7 breast, in the assay with PC-3 prostate, with K-562 leukemia and in the assay with IGROV1 ovarian was greater than 100 µM each time. For the same compound, the TGI in the assay with OVCAR-3 ovarian, in the assay with HCT-15 colon, with SK-MEL-28 melanoma, in the assay on SK-MEL-2 melanoma, in the assay on RXF 393 renal and with SR leukemia was greater than 100 µM each time. Moreover, the TGI with TK-10 renal, in the assay with HCT-116 colon, with MDA-MB-435, in the assay on NCI-H226 lung and in the assay on UACC-62 melanoma was greater than 100 µM in each case.
Consider `COc1ccc2nc(-c3ccc(O)cc3)sc2c1`, for which the TGI is 72.6 µM with NCI/ADR-RES ovarian; 78.3 µM in the assay on MOLT-4 leukemia; greater than 100 µM in the assay on MCF7 breast; 45.2 µM in the assay with PC-3 prostate; greater than 100 µM with K-562 leukemia; 36.2 µM with IGROV1 ovarian. Also, the TGI in the assay on OVCAR-3 ovarian was 36.2 µM; in the assay on HCT-15 colon, 36.5 µM; in the assay with SK-MEL-2 melanoma, greater than 100 µM; in the assay on RXF 393 renal it was 40.9 µM; with SR leukemia it was 22.5 µM; with OVCAR-4 ovarian, 44.5 µM. For the same compound, the TGI in the assay with TK-10 renal came to 70.2 µM; in the assay with MALME-3M melanoma it was 51.6 µM; in the assay on HCT-116 colon it was 32.7 µM; with MDA-MB-435, 56 µM; in the assay on NCI-H226 lung, 45.8 µM; in the assay with UACC-62 melanoma, 42.9 µM.
As to `C[C@@H]1CC[C@@H]2[C@@H](C1)O[C@@H]([C@H](C)OCc1ccccc1)SC2(C)C`, the TGI in the assay on NCI/ADR-RES ovarian is 75.5 µM; with MOLT-4 leukemia, 34.9 µM; in the assay on MCF7 breast, 31.5 µM; in the assay on PC-3 prostate it was greater than 100 µM; in the assay with K-562 leukemia, 39.5 µM; with IGROV1 ovarian it was greater than 100 µM. Also, the TGI is 82.7 µM in the assay on HCT-15 colon; 88.1 µM with SK-MEL-28 melanoma; 33 µM in the assay with SK-MEL-2 melanoma; 33.4 µM with RXF 393 renal; 35.6 µM with SR leukemia; greater than 100 µM in the assay with OVCAR-4 ovarian. Moreover, the TGI in the assay on TK-10 renal was greater than 100 µM; in the assay on MALME-3M melanoma, 53.1 µM; in the assay on HCT-116 colon it was 29.3 µM; with MDA-MB-435, greater than 100 µM; in the assay on NCI-H226 lung, 33 µM; in the assay on UACC-62 melanoma, greater than 100 µM.
As for `COC(=O)C1OC(O[C@H]2CC[C@]3(C)[C@H]4CC=C5[C@@H]6CC(C)(C)CC[C@]6(C(=O)OC6OCC(O)C(O)C6OC6OC(C)C(OC7OCC(O)C(O)C7O)C(O)C6O)CC[C@@]5(C)[C@]4(C)CC[C@H]3C2(C)C)C(O)C(O)C1O` (stereo not given in full), the GI50 with NCI/ADR-RES ovarian was 24 µM and > 100 µM. The TGI with NCI/ADR-RES ovarian is greater than 100 µM; with MOLT-4 leukemia, 38.9 µM and 45 µM; in the assay with MCF7 breast, 27.2 µM and 25.7 µM; in the assay with PC-3 prostate, 27.6 µM and 29.5 µM; with K-562 leukemia, 64.6 µM and 62.2 µM; in the assay with IGROV1 ovarian it was 75 µM and > 100 µM. Moreover, the TGI in the assay on OVCAR-3 ovarian was 97.6 µM and > 100 µM; in the assay on HCT-15 colon it was greater than 100 µM; in the assay on SK-MEL-28 melanoma, 27.8 µM and 30.5 µM; in the assay on SK-MEL-2 melanoma, 31.8 µM and 34.7 µM; in the assay on RXF 393 renal it was 37 µM and 40.7 µM; in the assay on SR leukemia, 32 µM and 24.9 µM. Further, the TGI in the assay on OVCAR-4 ovarian is 34.3 µM and 29.8 µM; in the assay with MALME-3M melanoma, 29 µM and 32.8 µM; with HCT-116 colon, 33.1 µM and 37.5 µM; in the assay on MDA-MB-435, 33.8 µM and 32.1 µM; in the assay on NCI-H226 lung, 37.7 µM and 37.2 µM; with UACC-62 melanoma, 32 µM and 32.5 µM.
With `N#Cc1ccc(-n2c3ccccc3c3ccc4c(c32)C(=O)C=CC4=O)cc1`, the TGI in the assay on NCI/ADR-RES ovarian is 53.9 µM; in the assay with MCF7 breast, 8.04 µM; in the assay with PC-3 prostate it was 8.98 µM; with K-562 leukemia, greater than 100 µM; with IGROV1 ovarian, 16.2 µM; in the assay on OVCAR-3 ovarian, 11.1 µM. The TGI in the assay on HCT-15 colon came to 16.1 µM; with SK-MEL-28 melanoma, 13.1 µM; in the assay with SK-MEL-2 melanoma, 28.9 µM; in the assay on RXF 393 renal, 5.32 µM; in the assay on SR leukemia, 6.92 µM; with OVCAR-4 ovarian it was 13 µM. Also, the TGI in the assay with TK-10 renal is 8.83 µM; in the assay on HCT-116 colon, 7.19 µM; with MDA-MB-435, 4.39 µM; in the assay with NCI-H226 lung it was greater than 74.5 µM; in the assay with UACC-62 melanoma, 15.6 µM.

Values taken from PubChem BioAssay (NCI).
